Legend:
[1] = test system: BCMA-expressing NCI-H929 multiple myeloma tumors; experiment: Xenogenic tumor model, NCI-H929 + human PBMC s.c. in NSG mice, dose response, treatment from implantation (Example 11); type: in vivo, mouse
Experimental: To determine the in vivo efficacy of anti-BCMA×anti-CD3 bispecific antibodies (Abs), a xenogenic tumor study was performed. Immunodeficient NOD.Cg-Prkdc^ScidII2rg^tm1Wjl/SzJ (NSG) mice were subcutaneously implanted with a mixture of 10×10^6 BCMA-expressing NCI-H929 human multiple myeloma tumor cells and 0.5×10^6 human peripheral blood mononuclear cells (PBMC) isolated from a normal, healthy donor. […] The mice were administered these Abs twice per week for a total of seven doses, and tumor growth was assessed over 60 days. While BCMA+NCI-H929 tumors grew similarly in the vehicle- and CD3-binding control-treated mice, both anti-BCMA×anti-CD3 Abs that were tested prevented the growth of tumors in a dose-dependent manner in vivo.
Implantation and measurement of xenogenic tumors: NSG mice were subcutaneously implanted with a mixture of 10×10^6 BCMA-expressing NCI-H929 multiple myeloma cells and 0.5×10^6 PBMC derived from a normal, healthy donor. […] The mice were administered Abs twice per week for a total of seven doses. Tumor growth was measured with calipers twice per week for the duration of the experiment.
Calculation of xenogenic tumor growth and inhibition: In order to determine tumor volume by external caliper, the greatest longitudinal diameter (length in mm) and the greatest transverse diameter (width in mm) were determined. Tumor volumes based on caliper measurements were calculated by the formula: Volume (mm^3)=(length× width^2)/2.

[2] = test system: Jurkat/NFATLuc.3C7 reporter cells with HEK293 cells (BCMA negative); experiment: Jurkat/NFATLuc reporter bioassay (T-cell activation); type: cell-based, human
Experimental: (§1) Activity of the anti-BCMA×anti-CD3 bispecific antibodies were assessed in a Jurkat/NFATLuc reporter bioassay utilizing several cell lines with varying levels of BCMA surface expression. The Jurkat cells were engineered to express an NFAT-luciferase reporter (Jurkat/NFATLuc.3C7), and 50,000 Jurkat reporter cells were combined with 50,000 BCMA positive (Daudi, MM1-S, NCI-H929, OPM-2, RPMI-8226, MOLP-8, or Raji) or BCMA negative (HEK293) cells in Thermo Nunclon delta 96 well white microwell plates (Thermo Scientific, Cat #136102) in 50 ul of assay media (RPMI media with 10% FBS and 1% P/S/G). Three-fold serial dilutions of the BCMA×CD3 bispecific antibodies (mAb25441D or mAb25442D), or a bivalent anti-BCMA antibody (mAb21581) were immediately added in 50 uL of assay buffer. The plates were gently agitated and incubated in a 37° C., 5% CO2 incubator for 4-6 hours. NFAT-Luciferase activity was determined using Promega One-Glo (Cat #E6130) and a Perkin Elmer Envision plate reader. RLU were plotted in GraphPad Prism using a four-parameter logistic equation over a 12-point response curve to calculate EC50 values. The no antibody treatment condition for each dose-response curve is also included in the analysis as a continuation of the three-fold serial dilution and is represented as the lowest dose. The signal to noise (S:N) is determined by taking the ratio of the highest RLU on the curve to the lowest.

[3] = test system: Jurkat/NFATLuc.3C7 reporter cells with MM1-S cells (BCMA positive); experiment: as above; type: cell-based, human
Experimental: as §1

[4] = test system: BCMA+ OPM-2-luciferase tumors; experiment: Xenogenic tumor model, i.v. OPM-2-luciferase in PBMC-engrafted NSG mice, bioluminescence (Example 15); type: in vivo, mouse; conditions: 0.4 mg/kg
Experimental: (§2) To determine the in vivo efficacy of anti-BCMA×anti-CD3 bispecific antibodies (Abs), a xenogenic tumor study was performed. On day 0, immunodeficient NOD.Cg-Prkdc^scidII2rg^tm1Wjl/SzJ (NSG) mice were intravenously administered 2×10^6 BCMA^+ OPM-2 human multiple myeloma tumor cells that were engineered to also express firefly luciferase (OPM-2-luciferase cells). On day 10, the mice were intraperitoneally injected with 4×10^6 human peripheral blood mononuclear cells (PBMC) from a normal, healthy donor. […] The mice were administered these Abs twice more on days 25 and 28, for a total of three doses. Tumor growth was assessed through day 61 by measuring tumor bioluminescence (BLI) in anesthetized animals. As a positive control, a group of mice (n=5) was given only OPM-2-luciferase cells, but not PBMC or antibody.
as §2, with “Implantation and measurement” for “To determine the in vivo efficacy”, “of” for “of anti-BCMA×anti-CD3 bispecific antibodies (Abs), a”, “tumors:” for “tumor study was performed.”, “NOD.Cg-Prkdc^scidII2rg^tm1Wkl/SzJ” for “NOD.Cg-Prkdc^scidII2rg^tm1Wjl/SzJ”
Measurement of xenogenic tumor growth: BLI imaging was used to measure tumor burden. Mice were injected IP with 150 mg/kg of the luciferase substrate D-luciferin suspended in PBS. Five minutes after this injection, BLI imaging of the mice was performed under isoflurane anesthesia using the Xenogen IVIS system. Image acquisition was carried out with the field of view at D, subject height of 1.5 cm, and medium binning level with automatic exposure time determined by the Living Image Software. BLI signals were extracted using Living Image software: regions of interest were drawn around each tumor mass and photon intensities were recorded as p/s/cm2/sr.

REGN5459: anti-BCMA×anti-CD3 bispecific antibody: mAb21581 BCMA heavy chain, mAb7221G20 CD3 heavy chain and common light chain; SEQ ID NOs 126, 128, 129
Average Tumor Size (mm3) ± SEM on Day 4 ([1]; 0.04 mg/kg): 33.0 ± 4.4 mm3
Average Tumor Size (mm3) ± SEM on Day 7 ([1]; 0.04 mg/kg): 8.4 ± 4.0 mm3
Average Tumor Size (mm3) ± SEM on Day 12 ([1]; 0.04 mg/kg): 0 ± 0 mm3
Average Tumor Size (mm3) ± SEM on Day 19 ([1]; 0.04 mg/kg): 23.1± 23.1 mm3
Average Tumor Size (mm3) ± SEM on Day 22 ([1]; 0.04 mg/kg): 69.5 ± 69.5 mm3
Average Tumor Size (mm3) ± SEM on Day 26 ([1]; 0.04 mg/kg): 156.7 ± 156.7 mm3
Average Tumor Size (mm3) ± SEM on Day 29 ([1]; 0.04 mg/kg): 226.6 ± 226.6 mm3
Average Tumor Size (mm3) ± SEM on Day 4 ([1]; 0.4 mg/kg): 19.6 ± 4.4 mm3
Average Tumor Size (mm3) ± SEM on Day 12 ([1]; 0.4 mg/kg): 0 ± 0 mm3
Average Tumor Size (mm3) ± SEM on Day 15 ([1]; 0.4 mg/kg): 0 ± 0 mm3
Average Tumor Size (mm3) ± SEM on Day 19 ([1]; 0.4 mg/kg): 0 ± 0 mm3
Average Tumor Size (mm3) ± SEM on Day 22 ([1]; 0.4 mg/kg): 0 ± 0 mm3
Average Tumor Size (mm3) ± SEM on Day 26 ([1]; 0.4 mg/kg): 0 ± 0 mm3
Average Tumor Size (mm3) ± SEM on Day 29 ([1]; 0.4 mg/kg): 0 ± 0 mm3
Average Tumor Size (mm3) ± SEM on Day 34 ([1]; 0.4 mg/kg): 0 ± 0 mm3
Average Tumor Size (mm3) ± SEM on Day 39 ([1]; 0.4 mg/kg): 0 ± 0 mm3
Average Tumor Size (mm3) ± SEM on Day 42 ([1]; 0.4 mg/kg): 0 ± 0 mm3
Average Tumor Size (mm3) ± SEM on Day 46 ([1]; 0.4 mg/kg): 0 ± 0 mm3
Average Tumor Size (mm3) ± SEM on Day 55 ([1]; 0.4 mg/kg): 0 ± 0 mm3
Average Tumor Size (mm3) ± SEM on Day 60 ([1]; 0.4 mg/kg): 0 ± 0 mm3
Average Tumor Size (mm3) ± SEM on Day 4 ([1]; 4 mg/kg): 21.8 ± 3.4 mm3
Average Tumor Size (mm3) ± SEM on Day 7 ([1]; 4 mg/kg): 8.0 ± 4.3 mm3
Average Tumor Size (mm3) ± SEM on Day 12 ([1]; 4 mg/kg): 1.7 ± 1.7 mm3
Average Tumor Size (mm3) ± SEM on Day 15 ([1]; 4 mg/kg): 0 ± 0 mm3
Average Tumor Size (mm3) ± SEM on Day 19 ([1]; 4 mg/kg): 0 ± 0 mm3
Average Tumor Size (mm3) ± SEM on Day 22 ([1]; 4 mg/kg): 0 ± 0 mm3
Average Tumor Size (mm3) ± SEM on Day 26 ([1]; 4 mg/kg): 0 ± 0 mm3
Average Tumor Size (mm3) ± SEM on Day 29 ([1]; 4 mg/kg): 0 ± 0 mm3
Average Tumor Size (mm3) ± SEM on Day 34 ([1]; 4 mg/kg): 0 ± 0 mm3
Average Tumor Size (mm3) ± SEM on Day 39 ([1]; 4 mg/kg): 0 ± 0 mm3
Average Tumor Size (mm3) ± SEM on Day 42 ([1]; 4 mg/kg): 0 ± 0 mm3
Average Tumor Size (mm3) ± SEM on Day 46 ([1]; 4 mg/kg): 0 ± 0 mm3
Average Tumor Size (mm3) ± SEM on Day 55 ([1]; 4 mg/kg): 0 ± 0 mm3
Average Tumor Size (mm3) ± SEM on Day 60 ([1]; 4 mg/kg): 0 ± 0 mm3
S:N (highest RLU to lowest) [2]: 1
S:N (highest RLU to lowest) [3]: 120
Radiance [p/s/cm2^2/sr] 26 days post-implantation (mean ± SEM) [4]: 1.28E+06 ± 7.36E+05 p/s/cm2^2/sr
Radiance [p/s/cm2^2/sr] 31 days post-implantation (mean ± SEM) [4]: 1.98E+06 ± 1.36E+06 p/s/cm2^2/sr
Radiance [p/s/cm2^2/sr] 34 days post-implantation (mean ± SEM) [4]: 4.24E+06 ± 3.69E+06 p/s/cm2^2/sr
Radiance [p/s/cm2^2/sr] 38 days post-implantation (mean ± SEM) [4]: 3.21E+06 ± 2.52E+06 p/s/cm2^2/sr
Radiance [p/s/cm2^2/sr] 40 days post-implantation (mean ± SEM) [4]: 3.84E+06 ± 3.34E+06 p/s/cm2^2/sr
Radiance [p/s/cm2^2/sr] 47 days post-implantation (mean ± SEM) [4]: 7.34E+05 ± 2.62E+04 p/s/cm2^2/sr
Radiance [p/s/cm2^2/sr] 54 days post-implantation (mean ± SEM) [4]: 6.41E+05 ± 5.96E+04 p/s/cm2^2/sr
Radiance [p/s/cm2^2/sr] 61 days post-implantation (mean ± SEM) [4]: 6.03E+05 ± 5.29E+04 p/s/cm2^2/sr
tumor burden ([4]; three doses): reduced tumor burdens to background levels in the majority of animals
Radiance [p/s/cm2^2/sr] 5 days post-implantation (mean ± SEM) ([4]; before first dose (day 21)): 5.09E+05 ± 3.56E+04 p/s/cm2^2/sr
Radiance [p/s/cm2^2/sr] 11 days post-implantation (mean ± SEM) ([4]; before first dose (day 21)): 6.45E+05 ± 2.39E+04 p/s/cm2^2/sr
Radiance [p/s/cm2^2/sr] 20 days post-implantation (mean ± SEM) ([4]; before first dose (day 21)): 2.13E+06 ± 1.69E+05 p/s/cm2^2/sr

Source: US11919965B2, “Methods of treating multiple myeloma with bispecific anti-BCMA x anti-CD3 antibodies” (Regeneron Pharmaceuticals, Inc., priority 2019, dated 2024)
